For orientation: EC50 means the concentration at which the effect is half-maximal. Lower therefore signals an effect from little substance. One may read the IC50 as the concentration that gives 50% inhibition.

Like-named read-outs stand apart in the source and are kept apart here. A value given as a limit tells only on which side of the number the result lay.

For one test, the system named is DLD-1 BRCA2(−/−) cells. As to the kind of experiment: Cell growth inhibition assay (CellTiter-Glo cell viability, 7 days). It counts as cell-based. The settings on record: Homo sapiens, 168 h. A digest of the protocol: (§1)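 Cells were seeded at 50 (DLD-1 parental), 200 (DLD-1 BRCA2−/−) or 500 (MDA-MB-436) cells/well onto 1:3 compound dilutions, top final 10 or 30 μM. Culture ran 7 days at 37 °C, 5% CO2. ATP was read by CellTiter-Glo 2.0, and IC50 was fitted from growth inhibition.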
For orientation: ATP-based viability assays read luminescence as a measure of living cells.

In test [1] the test system is MDA-MB-436 (mutated BRCA1) cells. The test is described as above. It counts as cell-based. Particulars: Homo sapiens, 168 h, MDA-MB-436, 7 days. In outline:
as §1

The target of another test is PARP1 (Homo sapiens (Human), UniProt P09874). As to the kind of experiment: Biochemical fluorescent polarization (FP) assay, displacement of PARPi-FL. It counts as binding. Particulars: 20 nM protein, 3 nM PARPi-FL, 4 h at room temperature. How it is done:
(§2) The assay was performed utilizing the following method:
(§3) 100% DMSO was used for the high (with protein) and low (without protein) control samples. 20 nL of compound or DMSO alone was added to individual assay plate wells.
(§4) PARP1 and PARP2 protein were expressed, purified, and diluted in assay buffer containing 50 mM Tris pH 8.0, 0.001% Triton X-100, 10 mM MgCl2, 150 mM NaCl to a final concentration of 20 nM. The PARPi-FL was then added at a final concentration of 3 nM.
(§5) The assay plate is centrifuged at 1000 rpm for 1 min and incubated for 4 h at room temperature.
(§6) The fluorescent polarization is read using an Envision plate reader using the following settings: […]

In a further test the target is PARP2 (Homo sapiens (Human), UniProt Q9UGN5). Described as above. Type of test: binding. On the procedure:
as §2, §3, §4, §5, §6

Where [2] appears, read: 20 nM protein, 3 nM PARPi-FL, 4 h at room temperature, read-out: IC50 FP PARP2.

Chain of PARP1 (P09874 whole entry): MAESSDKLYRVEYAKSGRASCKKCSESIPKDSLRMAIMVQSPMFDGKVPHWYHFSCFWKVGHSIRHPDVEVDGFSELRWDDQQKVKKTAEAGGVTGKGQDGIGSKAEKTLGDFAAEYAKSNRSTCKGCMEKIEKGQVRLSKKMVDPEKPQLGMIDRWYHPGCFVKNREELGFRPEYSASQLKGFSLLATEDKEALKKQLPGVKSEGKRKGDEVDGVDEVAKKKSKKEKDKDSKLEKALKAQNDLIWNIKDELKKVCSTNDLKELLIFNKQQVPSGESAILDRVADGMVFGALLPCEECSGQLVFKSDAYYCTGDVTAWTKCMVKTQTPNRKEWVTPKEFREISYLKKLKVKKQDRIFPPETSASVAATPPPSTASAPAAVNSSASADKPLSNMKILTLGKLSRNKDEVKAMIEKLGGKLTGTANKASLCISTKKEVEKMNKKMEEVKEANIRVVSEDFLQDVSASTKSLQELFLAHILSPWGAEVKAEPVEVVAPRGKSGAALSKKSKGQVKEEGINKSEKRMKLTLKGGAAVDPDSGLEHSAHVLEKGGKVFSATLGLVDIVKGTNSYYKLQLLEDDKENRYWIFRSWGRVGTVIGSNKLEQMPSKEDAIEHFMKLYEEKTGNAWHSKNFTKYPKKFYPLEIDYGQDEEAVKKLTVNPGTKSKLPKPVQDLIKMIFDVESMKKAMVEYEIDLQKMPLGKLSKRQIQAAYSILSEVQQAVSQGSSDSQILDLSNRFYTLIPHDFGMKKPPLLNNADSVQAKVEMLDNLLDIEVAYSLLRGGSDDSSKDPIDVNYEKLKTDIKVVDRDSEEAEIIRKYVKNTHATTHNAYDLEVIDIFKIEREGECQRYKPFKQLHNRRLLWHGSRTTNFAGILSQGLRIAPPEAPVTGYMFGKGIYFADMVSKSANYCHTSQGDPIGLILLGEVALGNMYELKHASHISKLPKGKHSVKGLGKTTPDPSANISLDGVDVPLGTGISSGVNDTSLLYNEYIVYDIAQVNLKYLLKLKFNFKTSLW
Chain of PARP2 (Q9UGN5 whole entry): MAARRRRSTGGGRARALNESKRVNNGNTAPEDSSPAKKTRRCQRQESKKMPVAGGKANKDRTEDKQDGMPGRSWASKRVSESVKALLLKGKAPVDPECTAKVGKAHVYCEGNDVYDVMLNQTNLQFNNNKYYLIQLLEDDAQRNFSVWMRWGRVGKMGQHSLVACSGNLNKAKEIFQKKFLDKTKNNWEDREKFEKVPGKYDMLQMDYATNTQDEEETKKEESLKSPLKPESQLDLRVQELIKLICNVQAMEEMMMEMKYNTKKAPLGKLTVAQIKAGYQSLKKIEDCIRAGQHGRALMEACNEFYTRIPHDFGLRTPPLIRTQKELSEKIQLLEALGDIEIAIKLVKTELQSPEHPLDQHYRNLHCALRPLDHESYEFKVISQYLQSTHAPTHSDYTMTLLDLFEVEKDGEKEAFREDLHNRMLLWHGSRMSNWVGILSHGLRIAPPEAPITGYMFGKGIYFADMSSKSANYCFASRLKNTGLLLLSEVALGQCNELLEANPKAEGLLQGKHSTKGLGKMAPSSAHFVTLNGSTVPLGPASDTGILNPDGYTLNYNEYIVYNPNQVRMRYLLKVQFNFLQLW

In the case of `CCc1cc2ncc(CN3C[C@H](Oc4ccc(C(=O)NC5CC5)nc4)[C@H]3C)cc2[nH]c1=O` [Example 43, N-cyclopropyl-5-{[(2R,3S)-1-[(7-ethyl-6-oxo-5H-1,5-naphthyridin-3-yl)methyl]-2-methylazetidin-3-yl]oxy}pyridine-2-carboxamide], the figures for the EC50 (in the test on DLD-1 BRCA2(−/−) cells; in test [1]) were 1.1 nM and 0.46 nM, respectively. For the same compound, the IC50 at PARP1 turned out to be 6.6 nM; at PARP2 (setting [2]) it was 2900 nM.
For `CCc1cc2ncc(CN3C[C@H](Oc4ccc(C(=O)NC5COC5)nc4)[C@H]3C)cc2[nH]c1=O` [Example 44, 5-(((2R,3S)-1-((7-ethyl-6-oxo-5,6-dihydro-1,5-naphthyridin-3-yl)methyl)-2-methylazetidin-3-yl)oxy)-N-(oxetan-3-yl)picolinamide] the same measures were 3.5 nM, 1.3 nM, 6.7 nM and 11000 nM.
As for `[2H]C([2H])([2H])NC(=O)c1ccc(O[C@H]2CN(C([2H])([2H])c3cnc4cc(CC)c(=O)[nH]c4c3)[C@@H]2C)cn1` [Example 45], the EC50 worked out at 1.5 nM in the test on DLD-1 BRCA2(−/−) cells and 0.87 nM in test [1]. The IC50 at PARP1 was determined as 5 nM; on PARP2 it was 6900 nM.
For the compound `CCc1cn2nc(CN3C[C@H](Oc4ccc(C(=O)NC)nc4)[C@H]3C)cc2[nH]c1=O` [Example 46], the results for the EC50 (in the test with DLD-1 BRCA2(−/−) cells; in test [1]) were 90 nM and 100 nM, respectively. Further, the IC50 is 9.9 nM at PARP1 and over 100000 nM on PARP2 (setting [2]).
Regarding `Cc1cc2ncc(CN3C[C@H](Oc4ccc(C#N)cc4)[C@H]3C)cc2[nH]c1=O` [Example 47], the EC50 (in the test with DLD-1 BRCA2(−/−) cells; in test [1]) was 100 nM in each case. Besides, the IC50 came to 5.8 nM at PARP1 and 88000 nM on PARP2 (setting [2]).
On to `CCc1cc2ncc(CN3C[C@H](Oc4ccc(C#N)cc4)[C@H]3C)cc2[nH]c1=O` [Example 48], for which the EC50 with DLD-1 BRCA2(−/−) cells was 5.7 nM; in test [1], 3.2 nM. For the same compound, the IC50 on PARP1 came out at 6.2 nM; on PARP2 (setting [2]) it was 3500 nM.
Regarding `CCc1cc2ncc(CN3CC[C@@H](n4ccc5nc(C(=O)NC)ccc54)C3)cc2[nH]c1=O` [Example 49], the figures for the EC50 (in the test on DLD-1 BRCA2(−/−) cells; in test [1]) were 9.2 nM and 9.5 nM, respectively. Further, the IC50 on PARP1 was 6.3 nM; at PARP2 (setting [2]) it was over 100000 nM.
In the same order, the values of `CNC(=O)c1ccc(O[C@H]2CN(Cc3cnc4cc(C)c(=O)[nH]c4c3)[C@@H]2C)cn1` [Example 50] are 5.3 nM, 8.7 nM, 11 nM and 83000 nM.
Take `CCc1cc2ncc(CN3C[C@H](Oc4ccc(F)cc4)[C@H]3C)cc2[nH]c1=O` [Example 51]: the EC50 turned out to be 4.4 nM in the test on DLD-1 BRCA2(−/−) cells and 7.9 nM in test [1]. The results for the IC50 on PARP1 and at PARP2 (setting [2]) were 4.1 nM and 4200 nM, respectively.
On to `CNC(=O)c1ncc(O[C@H]2CN(Cc3cnc4cc(C)c(=O)[nH]c4c3)[C@@H]2C)cc1F` [Example 52], for which the results for the EC50 (with DLD-1 BRCA2(−/−) cells; in test [1]) were 12 nM and 9.8 nM, respectively. The results for the IC50 at PARP1 and at PARP2 (setting [2]) were 6.3 nM and 76000 nM, respectively.
For `Cc1cc2ncc(CN3C[C@H](Oc4ccc(C(=O)NC5CC5)nc4)[C@H]3C)cc2[nH]c1=O` [Example 53] the same measures were 2.2 nM, 1.3 nM, 8 nM and 61000 nM.
For `CCNC(=O)c1ccc(OC2CN(Cc3cnc4cc(C)c(=O)[nH]c4c3)C2)cn1` [Example 56] the same measures were 45 nM, 12 nM, 6.2 nM and 76000 nM.
In the same order, the values of `Cc1cc2ncc(CN3CC(Oc4ccc(C(=O)NC5CC5)nc4)C3)cc2[nH]c1=O` [Example 57] are 12 nM, 6.8 nM, 9.4 nM and 47000 nM.
`CCNC(=O)c1ccc(OC2CN(Cc3cnc4cc(CC)c(=O)[nH]c4c3)C2)cn1` [Example 58]: the EC50 was found to be 3.3 nM in the test with DLD-1 BRCA2(−/−) cells and 1.7 nM in test [1]. The results for the IC50 on PARP1 and on PARP2 (setting [2]) were 6 nM and 8300 nM, respectively.

For the origin of these results see patent publication US11802128B2, “Azetidine and pyrrolidine PARP1 inhibitors and uses thereof” (Xinthera, Inc., priority 2021, dated 2023).
